Test results published in ChEMBL document CHEMBL5465560, “Selectivity Literature for EUbOPEN Chemogenomic Library” (2024).
Blank lines part the entries; values can stand above or below the compound they belong to.

Assays:
[1] = target: T1, Mitogen-activated protein kinase kinase kinase 12 (Homo sapiens) (UniProt Q12852); conditions: at 10 µM
T1 sequence (whole entry): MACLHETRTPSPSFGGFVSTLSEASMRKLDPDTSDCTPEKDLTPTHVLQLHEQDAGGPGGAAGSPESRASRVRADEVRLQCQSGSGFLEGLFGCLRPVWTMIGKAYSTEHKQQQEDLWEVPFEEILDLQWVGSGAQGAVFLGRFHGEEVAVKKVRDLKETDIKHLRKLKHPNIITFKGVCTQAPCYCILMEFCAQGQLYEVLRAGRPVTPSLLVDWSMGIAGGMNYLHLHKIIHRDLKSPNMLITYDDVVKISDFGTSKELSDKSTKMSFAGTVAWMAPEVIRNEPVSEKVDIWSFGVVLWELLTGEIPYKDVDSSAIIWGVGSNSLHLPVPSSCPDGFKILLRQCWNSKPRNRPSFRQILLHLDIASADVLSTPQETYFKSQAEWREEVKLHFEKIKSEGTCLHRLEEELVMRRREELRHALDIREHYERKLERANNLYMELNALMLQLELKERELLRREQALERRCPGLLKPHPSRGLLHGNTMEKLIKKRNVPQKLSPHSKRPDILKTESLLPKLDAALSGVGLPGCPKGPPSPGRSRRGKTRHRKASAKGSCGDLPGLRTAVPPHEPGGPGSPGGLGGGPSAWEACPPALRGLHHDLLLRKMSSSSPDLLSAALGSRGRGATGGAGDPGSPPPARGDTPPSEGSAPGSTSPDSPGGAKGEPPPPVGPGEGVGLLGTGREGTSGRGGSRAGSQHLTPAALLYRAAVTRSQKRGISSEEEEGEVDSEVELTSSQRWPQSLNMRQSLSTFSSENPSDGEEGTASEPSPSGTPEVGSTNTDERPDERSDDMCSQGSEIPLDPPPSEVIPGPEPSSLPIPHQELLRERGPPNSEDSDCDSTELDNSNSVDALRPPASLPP

[2] = target: Fibroblast growth factor receptor 4 (Homo sapiens, UniProt P22455); assay: Selectivity interaction (Ambit KINOMEscan and KiNATiv profiling in Jurkat cells) EUB0000090b FGFR4; assay type: cell-based; conditions: at 1 µM
Chain of Fibroblast growth factor receptor 4 (P22455 22-802 limits assumed): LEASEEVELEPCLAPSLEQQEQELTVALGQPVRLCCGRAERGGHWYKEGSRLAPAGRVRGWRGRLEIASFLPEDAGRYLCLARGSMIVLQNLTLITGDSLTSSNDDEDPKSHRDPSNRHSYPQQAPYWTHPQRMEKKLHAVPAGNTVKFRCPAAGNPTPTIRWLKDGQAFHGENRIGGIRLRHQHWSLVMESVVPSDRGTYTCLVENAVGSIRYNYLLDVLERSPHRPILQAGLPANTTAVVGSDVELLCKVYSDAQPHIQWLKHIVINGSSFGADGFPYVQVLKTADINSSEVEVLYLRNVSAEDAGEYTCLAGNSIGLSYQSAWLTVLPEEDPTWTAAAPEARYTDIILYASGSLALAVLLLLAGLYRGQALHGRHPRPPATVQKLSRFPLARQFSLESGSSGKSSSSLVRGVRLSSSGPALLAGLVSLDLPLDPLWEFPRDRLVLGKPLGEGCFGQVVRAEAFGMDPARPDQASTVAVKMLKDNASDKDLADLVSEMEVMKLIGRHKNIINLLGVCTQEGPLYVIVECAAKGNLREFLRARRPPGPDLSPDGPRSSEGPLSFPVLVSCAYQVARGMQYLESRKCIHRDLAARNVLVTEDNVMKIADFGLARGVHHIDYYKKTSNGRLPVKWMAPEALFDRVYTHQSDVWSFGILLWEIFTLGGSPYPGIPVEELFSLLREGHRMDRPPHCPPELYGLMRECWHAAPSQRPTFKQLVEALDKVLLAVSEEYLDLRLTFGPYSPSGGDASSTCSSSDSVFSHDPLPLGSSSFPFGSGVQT

[3] = target: Dual specificity tyrosine-phosphorylation-regulated kinase 1A (Homo sapiens, UniProt Q13627); assay: Selectivity interaction (Kinase panel (literature)) EUB0001199aCl DYRK1A; conditions: at 1 µM
[4] = target: AP2-associated protein kinase 1 (Homo sapiens, UniProt Q2M2I8); assay: Selectivity interaction (KinomeScan (DiscoverX)) EUB0000655a AAK1; conditions: at 10 µM
Chain of AP2-associated protein kinase 1 (Q2M2I8 whole entry, looked up): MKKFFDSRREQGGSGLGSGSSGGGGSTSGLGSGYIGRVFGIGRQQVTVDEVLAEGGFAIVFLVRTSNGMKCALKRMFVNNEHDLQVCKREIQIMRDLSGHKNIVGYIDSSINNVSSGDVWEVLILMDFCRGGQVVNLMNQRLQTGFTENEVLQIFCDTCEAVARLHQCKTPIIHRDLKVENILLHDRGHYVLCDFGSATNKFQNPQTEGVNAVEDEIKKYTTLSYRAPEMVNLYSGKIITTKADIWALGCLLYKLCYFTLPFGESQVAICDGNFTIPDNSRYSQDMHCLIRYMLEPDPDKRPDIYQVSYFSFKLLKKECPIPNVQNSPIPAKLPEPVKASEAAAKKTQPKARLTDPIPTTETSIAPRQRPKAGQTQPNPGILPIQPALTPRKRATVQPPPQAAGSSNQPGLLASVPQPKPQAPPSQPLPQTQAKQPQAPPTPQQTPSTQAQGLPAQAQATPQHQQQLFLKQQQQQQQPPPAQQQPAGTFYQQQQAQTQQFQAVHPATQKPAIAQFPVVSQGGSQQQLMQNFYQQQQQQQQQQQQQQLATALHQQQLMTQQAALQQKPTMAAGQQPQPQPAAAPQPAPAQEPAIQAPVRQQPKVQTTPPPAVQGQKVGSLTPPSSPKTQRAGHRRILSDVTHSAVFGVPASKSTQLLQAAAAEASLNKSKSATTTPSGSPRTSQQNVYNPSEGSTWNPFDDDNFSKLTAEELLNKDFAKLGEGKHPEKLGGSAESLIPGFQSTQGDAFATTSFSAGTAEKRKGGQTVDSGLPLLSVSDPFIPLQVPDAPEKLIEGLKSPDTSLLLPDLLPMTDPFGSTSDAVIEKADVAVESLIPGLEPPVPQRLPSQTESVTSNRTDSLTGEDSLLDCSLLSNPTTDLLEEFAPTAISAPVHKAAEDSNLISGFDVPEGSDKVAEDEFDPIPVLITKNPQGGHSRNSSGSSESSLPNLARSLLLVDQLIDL

[5] = target: T2, 3-phosphoinositide-dependent protein kinase 1 (Homo sapiens) (UniProt O15530); assay: Selectivity interaction (KinomeScan (DiscoverX)) EUB0000655a PDPK1; conditions: at 10 µM
T2 sequence (whole entry): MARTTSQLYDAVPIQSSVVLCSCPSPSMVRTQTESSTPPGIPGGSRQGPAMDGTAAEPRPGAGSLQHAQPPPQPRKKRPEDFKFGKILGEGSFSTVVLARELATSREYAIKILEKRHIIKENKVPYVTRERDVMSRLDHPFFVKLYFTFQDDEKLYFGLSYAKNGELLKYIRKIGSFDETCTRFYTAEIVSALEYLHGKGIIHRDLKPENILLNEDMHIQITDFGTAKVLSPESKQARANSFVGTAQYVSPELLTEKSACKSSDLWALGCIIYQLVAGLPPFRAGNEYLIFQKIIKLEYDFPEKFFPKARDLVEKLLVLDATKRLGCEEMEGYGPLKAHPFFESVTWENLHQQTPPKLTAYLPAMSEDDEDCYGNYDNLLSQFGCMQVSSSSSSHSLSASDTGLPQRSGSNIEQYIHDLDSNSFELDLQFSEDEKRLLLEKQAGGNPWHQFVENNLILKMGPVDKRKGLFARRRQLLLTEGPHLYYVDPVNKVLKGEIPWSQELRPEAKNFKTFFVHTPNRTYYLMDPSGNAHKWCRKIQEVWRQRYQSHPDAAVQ

[6] = target: cAMP-dependent protein kinase catalytic subunit alpha (Homo sapiens, UniProt P17612); assay: Selectivity interaction (KinomeScan (DiscoverX)) EUB0000607a PRKACA; conditions: at 10 µM
[7] = target: Serine/threonine-protein kinase PAK 1 (Homo sapiens) (UniProt Q13153); assay: Selectivity interaction (Kinase panel (Invitrogen)) EUB0000639a PAK1; conditions: at 200 nM
Chain of Serine/threonine-protein kinase PAK 1 (Homo sapiens) (Q13153 whole entry): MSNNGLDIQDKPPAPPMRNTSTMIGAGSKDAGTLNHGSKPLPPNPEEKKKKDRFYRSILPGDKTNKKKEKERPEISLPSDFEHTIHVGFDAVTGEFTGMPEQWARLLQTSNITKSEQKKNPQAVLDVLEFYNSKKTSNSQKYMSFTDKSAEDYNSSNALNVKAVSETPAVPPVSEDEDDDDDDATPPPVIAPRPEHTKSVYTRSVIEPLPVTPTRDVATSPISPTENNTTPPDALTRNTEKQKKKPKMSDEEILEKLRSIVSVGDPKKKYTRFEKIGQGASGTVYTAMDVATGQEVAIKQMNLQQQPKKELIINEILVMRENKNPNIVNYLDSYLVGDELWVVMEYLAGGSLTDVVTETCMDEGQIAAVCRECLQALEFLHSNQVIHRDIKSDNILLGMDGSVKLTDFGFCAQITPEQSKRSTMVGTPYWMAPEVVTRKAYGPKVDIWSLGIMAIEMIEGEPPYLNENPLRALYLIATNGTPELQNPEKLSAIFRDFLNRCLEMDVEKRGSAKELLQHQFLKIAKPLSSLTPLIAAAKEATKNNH

[8] = target: T3, Inhibitor of nuclear factor kappa-B kinase subunit alpha (Homo sapiens) (UniProt O15111); assay: Selectivity interaction (KinomeScan (DiscoverX)) EUB0000666a CHUK; conditions: at 10 µM
T3 sequence (whole entry): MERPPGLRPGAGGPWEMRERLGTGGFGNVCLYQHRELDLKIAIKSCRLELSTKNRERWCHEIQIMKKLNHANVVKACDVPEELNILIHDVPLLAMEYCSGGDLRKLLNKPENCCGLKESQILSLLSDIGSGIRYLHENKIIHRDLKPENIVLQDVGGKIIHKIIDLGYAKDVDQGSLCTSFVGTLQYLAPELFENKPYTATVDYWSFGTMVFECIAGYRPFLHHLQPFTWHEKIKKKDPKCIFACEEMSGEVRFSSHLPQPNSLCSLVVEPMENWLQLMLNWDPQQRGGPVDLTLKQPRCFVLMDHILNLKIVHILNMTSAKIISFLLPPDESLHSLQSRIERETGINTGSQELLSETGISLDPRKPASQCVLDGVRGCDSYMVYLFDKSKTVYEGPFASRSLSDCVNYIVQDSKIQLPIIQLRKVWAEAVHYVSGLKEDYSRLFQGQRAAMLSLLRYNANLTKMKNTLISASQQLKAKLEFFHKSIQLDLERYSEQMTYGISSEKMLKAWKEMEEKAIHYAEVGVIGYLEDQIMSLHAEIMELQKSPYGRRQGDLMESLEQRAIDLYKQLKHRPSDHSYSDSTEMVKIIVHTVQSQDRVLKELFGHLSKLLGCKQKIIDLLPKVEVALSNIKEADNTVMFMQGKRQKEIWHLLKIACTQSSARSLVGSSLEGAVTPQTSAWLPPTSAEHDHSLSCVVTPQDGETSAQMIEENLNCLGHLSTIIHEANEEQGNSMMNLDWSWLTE

[9] = target: Cyclin-dependent kinase 5 (Homo sapiens, UniProt Q00535); assay: Selectivity interaction (LanthaScreen Eu Kinase Binding Assay) EUB0001632a CDK5; conditions: at 10 µM
Chain of Cyclin-dependent kinase 5 (Q00535 whole entry, looked up): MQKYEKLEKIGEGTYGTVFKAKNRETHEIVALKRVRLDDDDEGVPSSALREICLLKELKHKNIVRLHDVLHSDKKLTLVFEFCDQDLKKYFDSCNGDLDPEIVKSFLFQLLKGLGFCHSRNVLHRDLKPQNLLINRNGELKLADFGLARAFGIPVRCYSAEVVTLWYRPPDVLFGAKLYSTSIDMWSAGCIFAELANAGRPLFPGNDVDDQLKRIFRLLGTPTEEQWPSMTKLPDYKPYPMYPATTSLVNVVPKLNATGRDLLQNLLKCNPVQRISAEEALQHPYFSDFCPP

[10] = target: Tyrosine-protein kinase SYK (Homo sapiens, UniProt P43405); assay: Selectivity interaction (Kinase panel (Z-LYTE Assay)) EUB0001632a SYK; conditions: at 10 µM

% of control [1]: 100%
Structure (SMILES): CCN(CC)CCCCNc1ncc2cc(-c3cc(OC)cc(OC)c3)c(NC(=O)NC(C)(C)C)nc2n1

Structure (SMILES): CN(C)C/C=C/C(=O)Nc1ccc(C(=O)N2CCCC(Nc3ncc(Cl)c(-c4c[nH]c5ccccc45)n3)C2)cc1 (stereo not given)
% of control [2]: 86%

% of inhibition [3]: -3%
Structure (SMILES): CN1Cc2nccc(-c3cn(C)nc3-c3ccc(F)cc3)c2C1=O

Structure (SMILES): CN(C)CCOc1ccc(-c2nc(-c3ccncc3)c(-c3ccc4c(c3)CC/C4=N\O)[nH]2)cc1
% of control [4]: 76% | % of control [5]: 88%

Structure (SMILES): CNC(=O)Nc1ccc(-c2nc(N3CC4CCC(C3)O4)c3cnn(C4CCC5(CC4)OCCO5)c3n2)cc1
% of control [6]: 75%

% of inhibition [7]: -9.19%
Structure (SMILES): CC[C@@H]1[C@H](F)C(=O)N[C@@H]1COc1nccc2cc(C(N)=O)c(OC)cc12 [ZIMLOVISERTIB]

Structure (SMILES): O=C(NOC[C@H](O)CO)c1ccc(F)c(F)c1Nc1ccc(I)cc1F
% of control [8]: 100%

% of inhibition [9]: -96.6% | % of control [10]: 3.71%
Structure (SMILES): Cn1cc(-n2cnc3c(NCc4nc5cc(Cl)c(Cl)cc5[nH]4)nc(N4CCOCC4)nc32)cn1
